Source: ChEMBL document CHEMBL1697781, “Assessment of the health effects of chemicals in humans: II. Construction of an adverse effects database for QSAR modeling” (Curr Drug Discov Technol, 2004)

What was measured:
Conditions in all cases: human; call rule not given here
Hepatotoxicity [1] = assay: FDA HLAED, serum glutamic oxaloacetic transaminase (SGOT) increase
Hepatotoxicity [2] = assay: FDA HLAED, serum glutamic pyruvic transaminase (SGPT) increase
Hepatotoxicity [3] = assay: FDA HLAED, liver enzyme composite activity
Hepatotoxicity [4] = assay: FDA HLAED, gamma-glutamyl transferase (GGT) increase
Hepatotoxicity [5] = assay: FDA HLAED, lactate dehydrogenase (LDH) increase
Hepatotoxicity [6] = assay: FDA HLAED, alkaline phosphatase increase
Wherever GGT Increase - Index Value is given: reference of the scale not given here.
Wherever LDH Increase - Index Value is given: reference of the scale not given here.

Row | Compound | SGOT Increase - Activity Score (Hepatotoxicity [1]) | SGOT Increase - Index Value (Hepatotoxicity [1]) | SGOT Increase - Number of Reports (Hepatotoxicity [1]) | SGPT Increase - Activity Score (Hepatotoxicity [2]) | SGPT Increase - Index Value (Hepatotoxicity [2]) | SGPT Increase - Number of Reports (Hepatotoxicity [2]) | Composite Activity - Active (Hepatotoxicity [3]) | Composite Activity - Marginal (Hepatotoxicity [3]) | Composite Activity - Score (Hepatotoxicity [3]) | GGT Increase - Activity Score (Hepatotoxicity [4]) | GGT Increase - Index Value (Hepatotoxicity [4]) | GGT Increase - Number of Reports (Hepatotoxicity [4]) | LDH Increase - Activity Score (Hepatotoxicity [5]) | LDH Increase - Index Value (Hepatotoxicity [5]) | LDH Increase - Number of Reports (Hepatotoxicity [5]) | Alkaline Phosphatase Increase - Activity Score (Hepatotoxicity [6]) | Alkaline Phosphatase Increase - Index Value (Hepatotoxicity [6]) | Alkaline Phosphatase Increase - Number of Reports (Hepatotoxicity [6]) | also measured
1 | C[C@@H]1CN(c2c(F)c(N)c3c(=O)c(C(=O)O)cn(C4CC4)c3c2F)C[C@H](C)N1 [SPARFLOXACIN] | Inactive | 0 | < 4 | Inactive | 0 | < 4 | 0 | 0 | Inactive | Inactive | 0 | < 4 | Inactive | 0 | < 4 | Inactive | 0 | < 4 | 
2 | Cc1cn([C@H]2C=C[C@@H](CO)O2)c(=O)[nH]c1=O [STAVUDINE] | Active | 9.1 | >= 4 | Active | 9.7 | >= 4 | 2 | 1 | Active | Marginally Active | 3.6 | >= 4 | Inactive | 1.8 | < 4 | Inactive | 2.4 | >= 4 | 
3 | CN(N=O)C(=O)N[C@@H](C=O)[C@@H](O)[C@H](O)[C@H](O)CO [STREPTOZOCIN] | Inactive | 0 | < 4 | Inactive | 0 | < 4 | 0 | 0 | Inactive | Inactive | 0 | < 4 | Inactive | 0 | < 4 | Inactive | 11.8 | < 4 | 
4 | Clc1ccc(CSC(Cn2ccnc2)c2ccc(Cl)cc2Cl)cc1 (stereo unspecified) [SULCONAZOLE] | Inactive | 0 | < 4 | Inactive | 0 | < 4 |  |  |  | Inactive | 0 | < 4 | Inactive | 0 | < 4 | Inactive | 0 | < 4 | Composite Activity - Active (Hepatotoxicity [3]; Liver): 0; Composite Activity - Marginal (Hepatotoxicity [3]; Liver): 0; Composite Activity - Score (Hepatotoxicity [3]; Liver): Inactive
5 | CC(C(=O)O)c1ccc(C(=O)c2cccs2)cc1 (stereo unspecified) [SUPROFEN] | Inactive | 6.1 | < 4 | Inactive | 0 | < 4 | 0 | 0 | Inactive | Inactive | 0 | < 4 | Inactive | 0 | < 4 | Inactive | 6.1 | < 4 | 
6 | Nc1c2c(nc3ccccc13)CCCC2 [TACRINE] | Active | 58.1 | >= 4 | Active | 170 | >= 4 |  |  |  | Active | 17.4 | >= 4 | Active | 19 | >= 4 | Active | 14.1 | >= 4 | Composite Activity - Active (Hepatotoxicity [3]; Liver): 5; Composite Activity - Marginal (Hepatotoxicity [3]; Liver): 0; Composite Activity - Score (Hepatotoxicity [3]; Liver): Active
7 | CCOC(=O)c1ccc(C#Cc2ccc3c(c2)C(C)(C)CCS3)nc1 [TAZAROTENE] | Inactive | 0 | < 4 | Inactive | 0 | < 4 | 0 | 0 | Inactive | Inactive | 0 | < 4 | Inactive | 0 | < 4 | Inactive | 0 | < 4 | 
8 | COc1cc([C@@H]2c3cc4c(cc3[C@@H](O[C@@H]3O[C@@H]5CO[C@@H](c6cccs6)O[C@H]5[C@H](O)[C@H]3O)[C@H]3COC(=O)[C@H]23)OCO4)cc(OC)c1O [TENIPOSIDE] | Inactive | 0 | < 4 | Inactive | 0 | < 4 | 0 | 0 | Inactive | Inactive | 0 | < 4 | Inactive | 0 | < 4 | Inactive | 0 | < 4 | 
9 | COc1cc2nc(N3CCN(C(=O)C4CCCO4)CC3)nc(N)c2cc1OC (stereo unspecified) [TERAZOSIN] | Inactive | 1.6 | >= 4 | Inactive | 1.3 | >= 4 | 0 | 0 | Inactive | Inactive | 0.8 | < 4 | Inactive | 0.5 | < 4 | Inactive | 0.5 | < 4 | 
10 | CN(C/C=C/C#CC(C)(C)C)Cc1cccc2ccccc12 [TERBINAFINE] | Marginally Active | 3.1 | >= 4 | Inactive | 2.8 | >= 4 | 0 | 1 | Inactive | Inactive | 2.6 | >= 4 | Inactive | 1.1 | >= 4 | Inactive | 1.1 | >= 4 | 
11 | CC(C)N1CCN(c2ccc(OCC3COC(Cn4cncn4)(c4ccc(Cl)cc4Cl)O3)cc2)CC1 (stereo unspecified) [TERCONAZOLE] | Inactive | 0 | < 4 | Inactive | 0 | < 4 | 0 | 0 | Inactive | Inactive | 0 | < 4 | Inactive | 0 | < 4 | Inactive | 0 | < 4 | 
12 | CC(C)(C)c1ccc(C(O)CCCN2CCC(C(O)(c3ccccc3)c3ccccc3)CC2)cc1 (stereo unspecified) [TERFENADINE] | Inactive | 0.7 | >= 4 | Inactive | 0.7 | >= 4 | 0 | 0 | Inactive | Inactive | 0.1 | < 4 | Inactive | 0.2 | < 4 | Inactive | 0.6 | >= 4 | 
